Test: Example 10 dosimetry, 27 mCRPC patients, planar whole-body conjugate imaging and SPECT/CT, MIRD method
Assay type: in vivo, human
Procedure: Radiation dosimetry of [^177Lu]Lu-PSMA-I&T was calculated in 27 patients with mCRPC based on biodistribution data from planar whole-body conjugate imaging at 1, 24, 48, 72, and 168 hours and, for 7 of them, SPECT/CT imaging at 48-72 hours post injection of their first cycle of [^177Lu]Lu-PSMA-I&T (6.8±10% GBq).
Regions of interest were drawn on the planar images.
Volumes of interest were constructed on the SPECT and CT
For each subject, kinetic data were modeled to determine
normalized number of disintegrations in organs and tissues, from which the absorbed dose estimates were computed using the MIRD method.

[1] = 27 patients, first cycle, 6.8 GBq, planar imaging
[2] = Bladder Wall, 27 patients, first cycle
[3] = Heart Wall, 27 patients, first cycle
[4] = Kidneys, 27 patients, first cycle
[5] = Lacrimal Glands, 27 patients, first cycle
[6] = Left Colon, 27 patients, first cycle
[7] = Liver, 27 patients, first cycle
[8] = Red Marrow, 27 patients, first cycle
[9] = Salivary Glands, 27 patients, first cycle
[10] = Spleen, 27 patients, first cycle
[11] = Thyroid, 27 patients, first cycle
[12] = cumulative administered activity of 27.2 GBq, four cycles of 6.8 GBq

O=C([O-])CC[C@H](NC(=O)N[C@@H](CCCCNC(=O)CCCCCCC(=O)NCCCC[C@@H](NC(=O)[C@@H](Cc1ccccc1)NC(=O)[C@@H](Cc1ccc(O)c(I)c1)NC(=O)CC[C@H](C(=O)[O-])N1CCN(CC(=O)[O-])CCN(CC(=O)[O-])CCN(CC(=O)[O-])CC1)C(=O)[O-])C(=O)[O-])C(=O)[O-].[177Lu+3].[H+].[H+].[H+].[H+].[H+] [^177Lu-PSMA I&T, (3S,7S,26R,29R,32R,37R)-29-benzyl-32-(4-hydroxy-3-iodobenzyl)-5,13,20,28,31,34-hexaoxo-37-(4,7,10-tris(carboxymethyl)-1,4,7,10-tetraazacyclododecan-1-yl)-4,6,12,21,27,30,33-heptaazaheptatriacontane-1,3,7,26,37-pentacarboxylic acid; lutetium-177 (III)]
absorbed dose, kidneys [1]: 0.73 Gy/GBq | absorbed dose, lacrimal glands [1]: 1.2 Gy/GBq | average dose, red marrow [1]: 0.034 Gy/GBq | average dose, salivary glands [1]: 0.34 Gy/GBq | dose estimate, Max [2]: 0.36 mGy/MBq or Gy/GBq | dose estimate, Mean [2]: 0.33 mGy/MBq or Gy/GBq | dose estimate, Min [2]: 0.14 mGy/MBq or Gy/GBq | Absorbed Dose, Mean (Bladder, SPLASH): 0.33 Gy/GBq | Absorbed Dose, Mean (Bone Marrow, SPLASH): 0.034 Gy/GBq | dose estimate, Max [3]: 0.15 mGy/MBq or Gy/GBq | dose estimate, Mean [3]: 0.036 mGy/MBq or Gy/GBq | dose estimate, Min [3]: 0.017 mGy/MBq or Gy/GBq | dose estimate, Mean (Heart Wall, Splash): 0.04 Gy/GBq | Absorbed Dose, Mean (Heart, SPLASH): 0.036 Gy/GBq | dose estimate, Max [4]: 1.8 mGy/MBq or Gy/GBq | dose estimate, Mean [4]: 0.73 mGy/MBq or Gy/GBq | dose estimate, Min [4]: 0.22 mGy/MBq or Gy/GBq | Absorbed Dose, Mean (Kidneys, Splash): 0.73 Gy/GBq | dose estimate, Mean (Kidneys, Splash): 0.73 Gy/GBq | dose estimate, Max [5]: 6.7 mGy/MBq or Gy/GBq | dose estimate, Mean [5]: 1.2 mGy/MBq or Gy/GBq | dose estimate, Min [5]: 0.38 mGy/MBq or Gy/GBq | Absorbed Dose, Mean (Lacrimal Glands, SPLASH): 1.2 Gy/GBq | dose estimate, Mean (Lacrimal gland, Splash): 1.20 Gy/GBq | dose estimate, Max [6]: 1.5 mGy/MBq or Gy/GBq | dose estimate, Mean [6]: 0.52 mGy/MBq or Gy/GBq | dose estimate, Min [6]: 0.013 mGy/MBq or Gy/GBq | Absorbed Dose, Mean (Left colon, Splash): 0.52 Gy/GBq | dose estimate, Mean (Left colon, Splash): 0.52 Gy/GBq | dose estimate, Max [7]: 0.24 mGy/MBq or Gy/GBq | dose estimate, Mean [7]: 0.051 mGy/MBq or Gy/GBq | dose estimate, Min [7]: 0.025 mGy/MBq or Gy/GBq | Absorbed Dose, Mean (Liver, Splash): 0.051 Gy/GBq | dose estimate, Mean (Liver, Splash): 0.051 Gy/GBq | dose estimate, Max [8]: 0.11 mGy/MBq or Gy/GBq | dose estimate, Mean [8]: 0.034 mGy/MBq or Gy/GBq | dose estimate, Min [8]: 0.014 mGy/MBq or Gy/GBq | dose estimate, Mean (Red Marrow, Splash): 0.03 Gy/GBq | dose estimate, Max [9]: 1.5 mGy/MBq or Gy/GBq | dose estimate, Mean [9]: 0.34 mGy/MBq or Gy/GBq | dose estimate, Min [9]: 0.14 mGy/MBq or Gy/GBq | Absorbed Dose, Mean (Salivary glands, Splash): 0.34 Gy/GBq | dose estimate, Mean (Salivary glands, Splash): 0.34 Gy/GBq | dose estimate, Max [10]: 0.80 mGy/MBq or Gy/GBq | dose estimate, Mean [10]: 0.16 mGy/MBq or Gy/GBq | dose estimate, Min [10]: 0.022 mGy/MBq or Gy/GBq | Absorbed Dose, Mean (Spleen, Splash): 0.16 Gy/GBq | dose estimate, Mean (Spleen, Splash): 0.16 Gy/GBq | dose estimate, Max [11]: 0.77 mGy/MBq or Gy/GBq | dose estimate, Mean [11]: 0.17 mGy/MBq or Gy/GBq | dose estimate, Min [11]: 0.011 mGy/MBq or Gy/GBq | Absorbed Dose, Mean (Thyroid, Splash): 0.17 Gy/GBq | dose estimate, Mean (Thyroid, Splash): 0.17 Gy/GBq | dose estimate, Mean (Urinary bladder wall, Splash): 0.33 Gy/GBq | cumulative absorbed dose, kidneys [12]: 19.9 Gy | cumulative absorbed dose, red marrow [12]: 0.91 Gy

Reference: patent publication US20250041461A1, “[177LU] LUTETIUM-PSMA I&T COMPOSITION AND DOSIMETRY, KIT, METHOD OF MAKING, AND METHOD OF USING THEREOF” (Curium US LLC, priority 2023, published 2025)
